Assay results as given in US20250236608A1, “EGFR INHIBITORS” (Blueprint Medicines Corporation, priority 2022, published 2025).

How the values were obtained:
[1] = biological target: pEGFR (Tyr1068) in PC-9 cells (Ex19Del) (Homo sapiens (Human), UniProt P00533, DEL746-750); assay: PC-9 pEGFR AlphaLISA assay; type: cell-based; conditions: 4 hours incubation, p-EGFR (Tyr1068) AlphaLISA, read-out: Ext pEGFR_PC-9 Ex19Del IC50
Outline: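 Readout: AlphaLISA SureFire Ultra signal in cell lysates, with acceptor beads for 1.5-2 h and donor beads overnight at room temperature in the dark. Beforehand, unstimulated cells in 10% FBS medium received compounds (10 points, 4-fold steps) for 4 h at 37° C. IC50 came from percent inhibition curves.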

EGFR L858R = EGFR L858R (Homo sapiens (Human), UniProt P00533, L858R); assay: Biochemical EGFR inhibition assay, EGFR L858R; conditions: Caliper mobility shift; 1.0 mM ATP or ATP Km; read-out: Enz EGFR_L858R IC50
EGFR (d746-750) = EGFR (d746-750) (Homo sapiens (Human), UniProt P00533, DEL746-750); assay: Biochemical EGFR inhibition assay, EGFR (d746-750); conditions: Caliper mobility shift; 1.0 mM ATP or ATP Km; read-out: Enz EGFR_Exon19-del746-750 IC50
Sequence of EGFR (d746-750) (P00533 other isoform, or with tags, fused parts or gaps del 1-694/del 746-750 limits assumed): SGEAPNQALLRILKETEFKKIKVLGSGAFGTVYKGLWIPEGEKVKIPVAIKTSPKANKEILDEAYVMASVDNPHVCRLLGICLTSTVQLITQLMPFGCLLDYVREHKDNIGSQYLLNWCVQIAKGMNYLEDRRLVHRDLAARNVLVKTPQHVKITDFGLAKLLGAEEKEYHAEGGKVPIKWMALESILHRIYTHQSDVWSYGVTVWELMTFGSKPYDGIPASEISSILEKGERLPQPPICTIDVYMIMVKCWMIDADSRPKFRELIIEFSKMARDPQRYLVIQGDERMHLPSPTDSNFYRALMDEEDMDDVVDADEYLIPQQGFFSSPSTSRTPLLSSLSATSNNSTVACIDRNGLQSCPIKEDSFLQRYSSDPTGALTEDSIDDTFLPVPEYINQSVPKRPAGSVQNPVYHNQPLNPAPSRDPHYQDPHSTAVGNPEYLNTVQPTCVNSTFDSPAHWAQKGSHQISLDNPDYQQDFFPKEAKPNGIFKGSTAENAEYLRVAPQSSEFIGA

Sequence of pEGFR (Tyr1068) in PC-9 cells (Ex19Del) (P00533 other isoform, or with tags, fused parts or gaps del 746-750): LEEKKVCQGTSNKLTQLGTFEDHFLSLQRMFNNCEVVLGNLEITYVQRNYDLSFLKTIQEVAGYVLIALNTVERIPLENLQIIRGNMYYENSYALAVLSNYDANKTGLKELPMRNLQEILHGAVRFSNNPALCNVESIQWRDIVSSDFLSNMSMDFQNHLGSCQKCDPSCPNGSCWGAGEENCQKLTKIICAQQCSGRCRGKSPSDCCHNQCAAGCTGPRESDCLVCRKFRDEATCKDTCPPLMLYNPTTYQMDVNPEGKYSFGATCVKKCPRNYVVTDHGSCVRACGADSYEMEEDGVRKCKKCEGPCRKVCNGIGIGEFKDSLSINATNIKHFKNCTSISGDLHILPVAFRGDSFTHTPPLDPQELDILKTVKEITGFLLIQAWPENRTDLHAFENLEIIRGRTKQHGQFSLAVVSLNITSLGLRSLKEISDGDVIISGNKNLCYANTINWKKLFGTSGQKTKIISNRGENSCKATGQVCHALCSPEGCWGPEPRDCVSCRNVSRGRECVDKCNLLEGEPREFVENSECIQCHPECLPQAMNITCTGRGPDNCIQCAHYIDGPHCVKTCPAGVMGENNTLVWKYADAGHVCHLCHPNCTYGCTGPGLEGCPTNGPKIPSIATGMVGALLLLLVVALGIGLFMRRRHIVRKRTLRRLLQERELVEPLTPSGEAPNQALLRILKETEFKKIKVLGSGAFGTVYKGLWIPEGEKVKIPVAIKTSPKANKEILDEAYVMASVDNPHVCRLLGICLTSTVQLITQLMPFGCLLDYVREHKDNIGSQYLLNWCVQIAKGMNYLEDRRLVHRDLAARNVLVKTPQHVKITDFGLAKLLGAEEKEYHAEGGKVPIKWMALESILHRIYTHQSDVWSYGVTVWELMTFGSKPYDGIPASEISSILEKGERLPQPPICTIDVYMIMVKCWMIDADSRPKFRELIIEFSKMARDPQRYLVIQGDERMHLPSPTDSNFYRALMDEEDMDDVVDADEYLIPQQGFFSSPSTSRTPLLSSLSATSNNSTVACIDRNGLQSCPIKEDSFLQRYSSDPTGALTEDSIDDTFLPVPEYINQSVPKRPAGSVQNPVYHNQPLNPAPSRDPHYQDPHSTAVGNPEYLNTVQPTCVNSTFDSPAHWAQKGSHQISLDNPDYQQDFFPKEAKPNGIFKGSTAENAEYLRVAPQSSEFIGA
Sequence of EGFR L858R (P00533 25-1210 L858R): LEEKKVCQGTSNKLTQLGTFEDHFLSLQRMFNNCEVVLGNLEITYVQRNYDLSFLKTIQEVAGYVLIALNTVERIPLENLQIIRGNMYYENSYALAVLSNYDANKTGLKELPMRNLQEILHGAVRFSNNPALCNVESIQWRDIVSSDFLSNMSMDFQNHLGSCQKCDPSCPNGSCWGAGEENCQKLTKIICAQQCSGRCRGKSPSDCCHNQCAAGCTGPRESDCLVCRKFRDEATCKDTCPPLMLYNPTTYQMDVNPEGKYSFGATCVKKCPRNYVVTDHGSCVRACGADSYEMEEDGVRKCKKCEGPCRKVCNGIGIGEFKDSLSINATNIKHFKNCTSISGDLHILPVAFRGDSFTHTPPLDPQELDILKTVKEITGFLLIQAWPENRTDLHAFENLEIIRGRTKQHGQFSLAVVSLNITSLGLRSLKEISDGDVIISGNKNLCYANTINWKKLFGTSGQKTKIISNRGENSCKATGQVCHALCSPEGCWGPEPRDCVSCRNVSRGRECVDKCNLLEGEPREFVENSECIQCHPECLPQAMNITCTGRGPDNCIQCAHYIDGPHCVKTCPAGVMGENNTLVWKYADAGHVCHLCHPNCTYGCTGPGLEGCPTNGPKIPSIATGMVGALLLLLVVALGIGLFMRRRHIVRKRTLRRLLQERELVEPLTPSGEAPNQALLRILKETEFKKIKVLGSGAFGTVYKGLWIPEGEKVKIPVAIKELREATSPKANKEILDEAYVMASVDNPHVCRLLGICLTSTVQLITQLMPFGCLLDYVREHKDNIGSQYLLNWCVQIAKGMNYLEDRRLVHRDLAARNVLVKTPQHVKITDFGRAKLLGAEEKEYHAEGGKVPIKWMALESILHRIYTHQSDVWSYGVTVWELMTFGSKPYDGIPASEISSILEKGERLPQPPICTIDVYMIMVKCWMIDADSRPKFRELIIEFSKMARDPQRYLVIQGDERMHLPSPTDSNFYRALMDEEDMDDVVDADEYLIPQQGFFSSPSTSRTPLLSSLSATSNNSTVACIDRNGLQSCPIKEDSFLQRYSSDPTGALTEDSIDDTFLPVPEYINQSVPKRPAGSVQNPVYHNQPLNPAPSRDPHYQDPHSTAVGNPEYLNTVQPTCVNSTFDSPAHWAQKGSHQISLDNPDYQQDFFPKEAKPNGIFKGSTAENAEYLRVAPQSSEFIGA

SMILES | IC50 [1] [nM] | IC50 (EGFR L858R) [nM] | IC50 (EGFR (d746-750)) [nM]
COc1cc2ncnc(-c3cn(C)nc3-c3ccccc3)c2nc1O[C@H](C)c1nnc(C)o1 [Example 38, (R)-2-(1-((7-methoxy-4-(1-methyl-3-phenyl-1H-pyrazol-4-yl)pyrido[3,2-d]pyrimidin-6-yl)oxy)ethyl)-5-methyl-1,3,4-oxadiazole] | 25.6 | 5.9 | 6.7
COc1cc2ncnc(-c3cn(CC(F)F)nc3-c3ccccc3)c2cc1OC(=O)N1CCN(C)C[C@@H]1C [Example 70, 4-(1-(2,2-difluoroethyl)-3-phenyl-1H-pyrazol-4-yl)-7-methoxyquinazolin-6-yl (S)-2,4-dimethylpiperazine-1-carboxylate] | 1.6 | 2.7 | 1.7
CCn1cc([C@H](C)Oc2nc3c(-c4cn(C)nc4-c4ccccc4)ncnc3cc2OC)nn1 [Example 36, (S)-6-(1-(1-ethyl-1H-1,2,3-triazol-4-yl)ethoxy)-7-methoxy-4-(1-methyl-3-phenyl-1H-pyrazol-4-yl)pyrido[3,2-d]pyrimidine] | 14 | 9.7 | 3.2
CCOc1cc2ncnc(-c3cn(C)nc3-c3ccccc3F)c2nc1NC(=O)[C@@]12C[C@@H]1CN(C)C2 (single isomer, unassigned) [Example 400, (1S,5S)—N-(7-ethoxy-4-(3-(2-fluorophenyl)-1-methyl-1H-pyrazol-4-yl)pyrido[3,2-d]pyrimidin-6-yl)-3-methyl-3-azabicyclo[3.1.0]hexane-1-carboxamide or (1R,5R)—N-(7-ethoxy-4-(3-(2-fluorophenyl)-1-methyl-1H-pyrazol-4-yl)pyrido[3,2-d]pyrimidin-6-yl)-3-methyl-3-azabicyclo[3.1.0]hexane-1-carboxamide] | 2 | 141 | 1.6
CN(C)CCOc1cc2ncnc(-c3cn(C)nc3-c3ccccc3)c2nc1NC(=O)C12COCC1C2 (stereo not drawn) [Example 435, N-(7-(2-(dimethylamino)ethoxy)-4-(1-methyl-3-phenyl-1H-pyrazol-4-yl)pyrido[3,2-d]pyrimidin-6-yl)-3-oxabicyclo[3.1.0]hexane-1-carboxamide] | 9.7 | 25.8 | 3.1
COc1cc2ncnc(-c3cn(C)nc3-c3ccccc3F)c2cc1OC(=O)N1CCN(C)C[C@@H]1C [Example 66, 4-(3-(2-fluorophenyl)-1-methyl-1H-pyrazol-4-yl)-7-methoxyquinazolin-6-yl (S)-2,4-dimethylpiperazine-1-carboxylate] | 5.2 | 2.9 | 2.2
CCOc1cc2ncnc(-c3cn(C)nc3-c3ccccc3)c2cc1OC1CCOCC1 [Example 24, 7-ethoxy-4-(1-methyl-3-phenyl-1H-pyrazol-4-yl)-6-((tetrahydro-2H-pyran-4-yl)oxy)quinazoline] | 2.6 | 1.3 | 0.8
COc1cc2ncnc(-c3cn(C)nc3-c3ccccc3)c2nc1OC(C)c1cocn1 (stereo not drawn) [Example 28, 4-(1-((7-methoxy-4-(1-methyl-3-phenyl-1H-pyrazol-4-yl)pyrido[3,2-d]pyrimidin-6-yl)oxy)ethyl)oxazole] | 0.7 | 1.2 | 0.9
Cn1cc(-c2ncnc3cc(OC(F)F)c(NC(=O)C4(C(F)(F)F)CC4)nc23)c(-c2ccccc2)n1 [Example 465, N-(7-(difluoromethoxy)-4-(1-methyl-3-phenyl-1H-pyrazol-4-yl)pyrido[3,2-d]pyrimidin-6-yl)-1-(trifluoromethyl)cyclopropane-1-carboxamide] | 3.5 | 4.9 | 0.8

Results, then the compound that gave them:

IC50 [1] [nM] | IC50 (EGFR L858R) [nM] | IC50 (EGFR (d746-750)) [nM] | SMILES
2.3 | 1.8 | 1 | COc1cc2ncnc(-c3cn(C)nc3-c3ccccc3)c2cc1NC(=O)C(C)F (stereo not drawn) [Example 221, 2-fluoro-N-(7-methoxy-4-(1-methyl-3-phenyl-1H-pyrazol-4-yl)quinazolin-6-yl)propanamide]
2 | 3 | 1.5 | COc1cc2ncnc(-c3cn(C)nc3-c3ccccc3F)c2cc1NC(=O)[C@]12COC[C@H]1C2 (single isomer, unassigned) [Example 241, (1S,5S)—N-(4-(3-(2-fluorophenyl)-1-methyl-1H-pyrazol-4-yl)-7-methoxyquinazolin-6-yl)-3-oxabicyclo[3.1.0]hexane-1-carboxamide or (1R,5R)—N-(4-(3-(2-fluorophenyl)-1-methyl-1H-pyrazol-4-yl)-7-methoxyquinazolin-6-yl)-3-oxabicyclo[3.1.0]hexane-1-carboxamide]
5.1 | 14 | 9 | COc1cc2ncnc(-c3cn(C)nc3-c3ccccc3)c2cc1NC(=O)c1cc2n(n1)CCCC2 [Example 225, N-(7-methoxy-4-(1-methyl-3-phenyl-1H-pyrazol-4-yl)quinazolin-6-yl)-4,5,6,7-tetrahydropyrazolo[1,5-a]pyridine-2-carboxamide]
2.3 | 2.2 | 1.3 | COc1cc2ncnc(-c3cn(C)nc3-c3ccccc3)c2cc1NC(=O)[C@H](C)F (single isomer, unassigned) [Example 244, (S)-2-fluoro-N-(7-methoxy-4-(1-methyl-3-phenyl-1H-pyrazol-4-yl)quinazolin-6-yl) propenamide or (R)-2-fluoro-N-(7-methoxy-4-(1-methyl-3-phenyl-1H-pyrazol-4-yl)quinazolin-6-yl) propenamide]
1.6 | 1.6 | 0.9 | COc1cc2c(-c3cn(C)nc3-c3ccccc3)ncnc2cc1N1CC2(CN(C(C)=O)C2)C1 [Example 447, 1-(6-(6-methoxy-4-(1-methyl-3-phenyl-1H-pyrazol-4-yl)quinazolin-7-yl)-2,6-diazaspiro[3.3]heptan-2-yl)ethan-1-one]
0.6 | 1.4 | 1.1 | CCOc1cc2ncnc(-c3cn(C)nc3-c3ccccc3)c2cc1NC(=O)C1CC1 [Example 306, N-(7-ethoxy-4-(1-methyl-3-phenyl-1H-pyrazol-4-yl)quinazolin-6-yl)cyclopropanecarboxamide]
2.1 | 1.4 | 0.9 | CCOc1cc2ncnc(-c3cn(C)nc3-c3ccccc3)c2cc1OC [Example 25, 7-ethoxy-6-methoxy-4-(1-methyl-3-phenyl-1H-pyrazol-4-yl)quinazoline]
2.7 | 2.1 | 1 | COc1cc2ncnc(-c3cn(C)nc3-c3ccccc3)c2cc1NC(=O)c1ccnn1C(C)C [Example 218, 1-isopropyl-N-(7-methoxy-4-(1-methyl-3-phenyl-1H-pyrazol-4-yl)quinazolin-6-yl)-1H-pyrazole-5-carboxamide]
1.6 | 2.1 | 1.7 | CCC(=O)Nc1cc2c(-c3cn(C)nc3-c3ccccc3)ncnc2cc1OC [Example 322, N-(7-methoxy-4-(1-methyl-3-phenyl-1H-pyrazol-4-yl)quinazolin-6-yl)propionamide]
1 | 1.4 | 0.8 | COc1cc2ncnc(-c3cn(C)nc3-c3ccccc3)c2cc1NC(=O)c1scnc1C [Example 207, N-(7-methoxy-4-(1-methyl-3-phenyl-1H-pyrazol-4-yl)quinazolin-6-yl)-4-methylthiazole-5-carboxamide]
